Reference: paper PMC4608832, “Synthesis of New 4-Aminoquinolines and Evaluation of Their In Vitro Activity against Chloroquine-Sensitive and Chloroquine-Resistant Plasmodium falciparum” (PLoS ONE, 2015)
Like-named read-outs stand apart in the source and are kept apart here.

How the values were obtained:
[1] = test system: P. falciparum 3D7 (CQ-sensitive); test: In vitro antiplasmodial activity, 3H-hypoxanthine incorporation, strain 3D7; format: cell-based; conditions: Plasmodium falciparum, IC50 ± SD
Protocol: (§1) The following strains of Plasmodium falciparum were used in this study: F32 (Tanzania), Dd2 (SE Asia), K1 (SE Asia), FcB1 (Colombia), K14 (Cambodia) and 3D7 (Africa). […] Parasites at the ring stage (laboratory A) or asynchronous parasites (laboratory B) were grown in human A+ or O+ red blood cells at a 1.5% (laboratory A) or 2% (laboratory B) haematocrit and a 0.8–1% parasitaemia. Synchronization of the parasites was performed by sorbitol treatment.
(§2) Further dilutions were in complete culture medium. The complexes were tested for their inhibitory effect toward P. falciparum intraerythrocytic development. […] 100 μL from a culture at a 3% (laboratory A) or 4% (laboratory B) hematocrit in complete medium was added per well. […] Plates were freeze-thawed and harvested on filters. […] The percentage of growth inhibition was calculated from the parasite-associated radioactivity. 100% ^3H-hypoxanthine incorporation was determined from a control grown in the absence of drug or test compound.

P. falciparum Dd2 = test: In vitro antiplasmodial activity, 3H-hypoxanthine incorporation, strain Dd2; format: cell-based; conditions: Plasmodium falciparum, IC50 ± SD
Protocol: as §1, §2

[2] = test system: P. falciparum K1 (CQ-resistant); test: In vitro antiplasmodial activity, 3H-hypoxanthine incorporation, strain K1; format: cell-based; conditions: Plasmodium falciparum, IC50 ± SD
Protocol: as §1, §2

in vitro = conditions: for microsomal CLint at 1 μM / half-life at 1 μM: human; for microsomal CLint at 1 μM: pH 7.4
Protocol: The evaluation of microsomal stability was performed by Cyprotex US, LLC, Watertown, MA. […] After separation on an HILIC HPLC colum (Sepax HILIC […] 2.1 x 30 mm) using an acetonitrile-water gradient system, peaks were analyzed by mass spectrometry (MS) using ESI ionization in MRM mode. The signal was optimized for each compound by ESI positive or negative ionization mode. An MS2 scan or an SIM scan was used to optimize the fragmenter voltage and a product ion analysis was used to identify the best fragment for analysis, and the collision energy was optimized using a product ion or MRM scan. An ionization ranking was assigned indicating the compound’s ease of ionization.
A control reaction omitting NADPH was performed for each compound in order to detect any NADPH-independent degradation. Aliquots were removed at 0, 10, 20, 40, and 60 min and mixed with an equal volume of ice-cold Stop Solution (methanol containing haloperidol, diclofenac, or other internal standard). The stopped reactions were further incubated for at least 10 min at -20°C, and an additional volume of water was added. The samples were centrifuged to remove precipitated protein, and the supernatants were analyzed by LC/MS/MS to quantify the remaining parent. Data were converted to % remaining by dividing by the time zero concentration value, and fitted to a first-order decay model to determine half-life values. Intrinsic clearance values were calculated from the half-life and protein concentrations by using the equation CLint = ln 2 / t1/2 [microsomal protein].

[3] = set-up: method as in PMID 11805197; conditions: elimination of the active metabolite after AQ; cited from earlier work
[4] = test system: P. falciparum F32 (CQ-sensitive); test: In vitro antiplasmodial activity, 3H-hypoxanthine incorporation, strain F32; format: cell-based; conditions: Plasmodium falciparum
Protocol: as §1, §2
(§3) IC50 ± SD values (nM) determined from independent experiments performed in triplicate under the conditions of laboratory B (Paris).

[5] = test system: P. falciparum K14 (CQ-resistant); test: In vitro antiplasmodial activity, 3H-hypoxanthine incorporation, strain K14; format: cell-based; conditions: Plasmodium falciparum
Protocol: as §1, §2, §3

[6] = test system: P. falciparum FcB1 (CQ-resistant); test: In vitro antiplasmodial activity, 3H-hypoxanthine incorporation, strain FcB1; format: cell-based; conditions: Plasmodium falciparum
Protocol: as §1, §2, §3

[7] = Cytotoxicity, MTT, L6 cells; format: cell-based; conditions: rat, L-6 cells, concentration inducing 50% of cell growth arrest, three days
Protocol: (§4) The rat L-6 and human MRC-5 cell lines were routinely grown in RPMI 1640 supplemented with 11 mM glucose, 27.5 mM NaHCO3, 100 UI/mL penicillin, 100 μg/mL streptomycin and 10% fetal calf serum (RPMI-FCS), in a 5% CO2 incubator at 37°C. For cytotoxicity assays, 100 μL per well of a 2×10^4 cells/mL suspension in RPMI-FCS were deposited in a 96-well microplate and incubated overnight in culture conditions. Then decreasing concentrations of the compounds to test were established by twofold serial dilutions in RPMI-FCS and distributed at a rate of 100 μL per well and the microplate was put back in the incubator for an additional three (L-6) or five (MRC-5) day period. Then the supernatant in each well was discarded and replaced by 100 μL of MTT 1 mg/mL in RPMI-FCS. The microplate was re-incubated in culture conditions for three hours, then 100 μL of 10% SDS was added by well. The cells were left overnight in the incubator then the OD at 540nm was measured with the Bio-Tek FL600™ microplate reader equipped with the KC4™ software. […] The selectivity of each compound to P. falciparum was assessed through the selectivity index (SI), defined as CC50 (to L6 or MRC5 cells) / IC50 (to P. falciparum).

[8] = Cytotoxicity, MTT, MRC5 cells; format: cell-based; conditions: human, MRC-5 cells, concentration inducing 50% of cell growth arrest, five days
Protocol: as §4

[9] = 3D7, laboratory A (Marseille), 5% CO2, 10% O2, 85% N2, read-out: Antiplasmodial activity, IC50, 3D7
[10] = 3D7, laboratory B (Paris), candle jar ~17% O2, 3% CO2, 80% N2, read-out: Antiplasmodial activity, IC50, 3D7
[11] = DD2, laboratory A (Marseille), 5% CO2, 10% O2, 85% N2, Dd2 CQ-resistant under these conditions, read-out: Antiplasmodial activity, IC50, Dd2
[12] = DD2, laboratory B (Paris), candle jar ~17% O2, 3% CO2, 80% N2, Dd2 CQ-sensitive under these conditions, read-out: Antiplasmodial activity, IC50, Dd2
[13] = K1, laboratory A (Marseille), 5% CO2, 10% O2, 85% N2, read-out: Antiplasmodial activity, IC50, K1
[14] = K1, laboratory B (Paris), candle jar ~17% O2, 3% CO2, 80% N2, read-out: Antiplasmodial activity, IC50, K1
[15] = F32, laboratory B (Paris), IC50 ± SD, read-out: Antiplasmodial activity, IC50, F32
[16] = laboratory B (Paris), IC50 ± SD, read-out: Antiplasmodial activity, IC50, K14
[17] = FCB1, laboratory B (Paris), IC50 ± SD, read-out: Antiplasmodial activity, IC50, FcB1
[18] = human liver microsomes, pH 7.4, NADPH-dep. t1/2, human liver microsomes, [Compd] = 1 μM, [protein] = 0.3 mg/mL, with NADPH
[19] = human liver microsomes, pH 7.4, NADPH-free t1/2, human liver microsomes, [Compd] = 1 μM, [protein] = 0.3 mg/mL, without NADPH

Compound	IC50 [1, 9]	IC50 [1, 10]	IC50 (P. falciparum Dd2; [11])	IC50 (P. falciparum Dd2; [12])	IC50 [2, 13]	IC50 [2, 14]	IC50 [4, 15]	IC50 [5, 16]	IC50 [6, 17]	microsomal CLint at 1 μM (in vitro; human liver microsomes)	half-life at 1 μM (in vitro; [18])	half-life at 1 μM (in vitro; [19])	CC50 at 3 days [7]	CC50 at 5 days [8]	further results
CCN(CC)Cc1cc(Nc2ccnc3cc(Cl)ccc23)ccc1O [AQ, amodiaquine, reference compound]	0.0246 ± 0.00306 µM	0.0119 ± 0.001 µM	0.0316 ± 0.00777 µM	0.0113 ± 0.00064 µM	0.0343 ± 0.00058 µM	0.0096 ± 0.00051 µM									microsomal CLint at 1 μM (in vitro; microsomes): 431 ± 33.4 µL/min/mg; half-life at 1 μM (in vitro; microsomes, pH 7.4, NADPH-dep. t1/2): 5.4 ± 0.42 min; half-life at 1 μM (in vitro; microsomes, pH 7.4, NADPH-free t1/2): > 240 min; terminal half-life [3]: ~ 100 h
CCN(CC)CCCC(C)Nc1ccnc2cc(Cl)ccc12 (stereo not drawn) [CQ, chloroquine]															IC50 ([1]; 3D7, read-out: Antiplasmodial activity, IC50, 3D7, laboratory A (Marseille), 5% CO2, 10% O2, 85% N2): 0.0176 ± 0.00071 µM; IC50 ([1]; 3D7, read-out: Antiplasmodial activity, IC50, 3D7, laboratory B (Paris), candle jar ~17% O2, 3% CO2, 80% N2): 0.018 ± 0.0123 µM; IC50 (P. falciparum Dd2; DD2, read-out: Antiplasmodial activity, IC50, Dd2, laboratory A (Marseille), 5% CO2, 10% O2, 85% N2, Dd2 CQ-resistant under these conditions): 0.522 ± 0.0957 µM; IC50 (P. falciparum Dd2; DD2, read-out: Antiplasmodial activity, IC50, Dd2, laboratory B (Paris), candle jar ~17% O2, 3% CO2, 80% N2, Dd2 CQ-sensitive under these conditions): 0.0351 ± 0.0121 µM; IC50 ([2]; K1, read-out: Antiplasmodial activity, IC50, K1, laboratory A (Marseille), 5% CO2, 10% O2, 85% N2): 1.09 ± 0.164 µM; IC50 ([2]; K1, read-out: Antiplasmodial activity, IC50, K1, laboratory B (Paris), candle jar ~17% O2, 3% CO2, 80% N2): 0.124 ± 0.048 µM; IC50 ([4]; F32, read-out: Antiplasmodial activity, IC50, F32): 0.0339 ± 0.0123 µM; IC50 ([5]; read-out: Antiplasmodial activity, IC50, K14): 0.103 ± 0.0925 µM; IC50 ([6]; FCB1, read-out: Antiplasmodial activity, IC50, FcB1): 0.111 ± 0.043 µM; NADPH-dep. t1/2 (in vitro; human liver microsomes, [Compd] = 1 μM, [protein] = 0.3 mg/mL, with NADPH): 133.2 ± 15.52 min; microsomal CLint at 1 μM (in vitro; microsomes): 17.5 ± 2.03 µL/min/mg; half-life at 1 μM (in vitro; microsomes, pH 7.4, NADPH-dep. t1/2, human liver microsomes, [Compd] = 1 μM, [protein] = 0.3 mg/mL, with NADPH): 133 ± 15.5 min; half-life at 1 μM (in vitro; microsomes, pH 7.4, NADPH-free t1/2, human liver microsomes, [Compd] = 1 μM, [protein] = 0.3 mg/mL, without NADPH): > 240 min
CCN(CC)Cc1ccc(CNc2ccnc3cc(Cl)ccc23)cc1 [Compound 3, 7-Chloro-N-(4-((diethylamino)methyl)benzyl)quinolin-4-amine]	0.0173 ± 0.00058 µM	0.0161 ± 0.00244 µM	0.0305 ± 0.00212 µM	0.0177 ± 0.00378 µM	0.0603 ± 0.00407 µM	0.0124 ± 0.0004 µM	0.0243 ± 0.0029 µM	0.033 ± 0.00576 µM	0.0315 ± 0.0057 µM	51.1 ± 3.06 µL/min/mg	45.3 ± 1.36 min	> 240 min	13.8 ± 1.9 µM	13 ± 2.26 µM	
CCN(CC)CC1=C(CNc2ccnc3cc(Cl)ccc23)CC=CC1 [Compound 5, 7-Chloro-N-((2-((diethylamino)methyl)cyclohexa-1,4-dien-1-yl)methyl)quinolin-4-amine]			0.059 ± 0.00185 µM		0.0637 ± 0.00146 µM	0.0202 ± 0.00655 µM	0.0254 ± 0.00531 µM	0.0187 ± 0.00116 µM							

Further lines, with some results ahead:

IC50 [1, 9]	IC50 [1, 10]	IC50 (P. falciparum Dd2; [11])	IC50 (P. falciparum Dd2; [12])	IC50 [2, 13]	IC50 [2, 14]	IC50 [4, 15]	IC50 [5, 16]	IC50 [6, 17]	microsomal CLint at 1 μM (in vitro; human liver microsomes)	half-life at 1 μM (in vitro; [18])	half-life at 1 μM (in vitro; [19])	Compound	CC50 at 3 days [7]	CC50 at 5 days [8]	further results
0.0135 ± 0.00071 µM	0.0216 ± 0.00311 µM	0.0213 ± 0.00252 µM	0.0194 ± 0.00218 µM	0.0527 ± 0.00099 µM	0.0146 ± 0.00036 µM	0.03 ± 0.0152 µM	0.0135 ± 0.00466 µM	0.0121 ± 0.0012 µM	45.6 ± 0.12 µL/min/mg	50.9 ± 0.55 min	> 240 min	CCN(CC)Cc1ccccc1CNc1ccnc2cc(Cl)ccc12 [Compound 1, 7-Chloro-N-(2-((diethylamino)methyl)benzyl)quinolin-4-amine]	27.7 ± 1.73 µM	26.4 ± 1.75 µM	
0.0184 ± 0.00066 µM	0.0171 ± 0.00297 µM	0.0265 ± 0.00507 µM	0.0171 ± 0.00172 µM	0.0642 ± 0.00616 µM	0.012 ± 0.00115 µM	0.0147 ± 0.00045 µM	0.0236 ± 0.00173 µM	0.0303 ± 0.0017 µM	56.2 ± 0.55 µL/min/mg	41.1 ± 0.41 min	> 240 min	CCN(CC)Cc1cccc(CNc2ccnc3cc(Cl)ccc23)c1 [Compound 2, 7-Chloro-N-(3-((diethylamino)methyl)benzyl)quinolin-4-amine]	20.6 ± 3.92 µM	20.3 ± 3.4 µM	
0.0152 ± 0.00157 µM	0.0129 ± 0.00085 µM	0.0207 ± 0.0002 µM	0.0144 ± 0.0005 µM	0.0534 ± 0.00203 µM	0.0118 ± 0.001 µM	0.0169 ± 0.001 µM		0.0179 ± 0.0017 µM	466 ± 44 µL/min/mg	~5 min	> 240 min	CCN(CC)Cc1ccc(-c2ccc(CNc3ccnc4cc(Cl)ccc34)cc2)cc1 [Compound 4, 7-Chloro-N-((4’-((diethylamino)methyl)-[1,1’-biphenyl]-4-yl)methyl)quinolin-4-amine]	2.8 ± 0.15 µM	2.6 ± 0.12 µM	IC50 ([5]; under conditions A (as printed in text), read-out: IC50 against K14 strain): 0.0075 µM
